This passage reports IC50 results from patent US11446287B2, “Compounds and methods for EP300 or CBP modulation and indications therefor” (Opna Immuno-Oncology SA, priority 2019, dated 2022).

T1 sequence (Q92793 1081-1197): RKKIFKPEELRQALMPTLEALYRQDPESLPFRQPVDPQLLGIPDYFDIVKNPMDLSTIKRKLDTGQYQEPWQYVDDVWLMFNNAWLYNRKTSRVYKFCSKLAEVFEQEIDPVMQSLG

The assay has as its target T1, Recombinant human CBP containing the bromodomain (CBP-BD (1043-1159)) (Homo sapiens, UniProt Q92793).
T1 construct: Recombinant human CBP bromodomain (CBP-BD (1043-1159)); made in house; host or cells: E. coli BL21-CodonPlus (DE3), modified pET vector
Put plainly: CBP Alphascreen binding assay. To be noted: read-out: CREBBP (CBP) IC50. Put shortly: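 Buffer: 50 mM HEPES pH 7.5, 50 mM NaCl, 0.01% BSA, 0.01% Triton X-100, 2 mM DTT. The signal was normalised to plate controls and fitted with a four-parameter curve to give IC50.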
In general terms: In Alpha technology, singlet oxygen from a donor bead excites a nearby acceptor bead.
As usually defined, the IC50 is the concentration that gives 50% inhibition. For the molecule `Cc1noc(C)c1-c1cnc2c(c1)c(-c1ccc(C(=O)O)cc1OC1CC1)cn2-c1ncccc1C#N` [P-0337, 4-(1-(3-cyanopyridin-2-yl)-5-(3,5-dimethylisoxazol-4-yl)-1H-pyrrolo[2,3-b]pyridin-3-yl)-3-cyclopropoxybenzoic acid], the IC50 was 0.1 to 1000 nM.
As for `Cc1noc(C)c1-c1cnc2c(c1)c(-c1ccc(C(=O)O)cc1OCC(F)F)cn2C(C1CC1)C1CC1` [P-0338, 4-(1-(dicyclopropylmethyl)-5-(3,5-dimethylisoxazol-4-yl)-1H-pyrrolo[2,3-b]pyridin-3-yl)-3-(2,2-difluoroethoxy)benzoic acid], the figure is 0.1 to 1000 nM; as for `COc1cc(C(=O)O)ncc1-c1cn(C(C2CC2)C2CC2)c2ncc(-c3c(C)noc3C)cc12` [P-0339, 5-(1-(dicyclopropylmethyl)-5-(3,5-dimethylisoxazol-4-yl)-1H-pyrrolo[2,3-b]pyridin-3-yl)-4-methoxypicolinic acid], 0.1 to 1000 nM; as for `Cc1noc(C)c1-c1cnc2c(c1)c(-c1c(Cl)cc(C(=O)O)cc1OCC(F)F)cn2C(C1CC1)C1CC1` [P-0340, 3-chloro-4-(1-(dicyclopropylmethyl)-5-(3,5-dimethylisoxazol-4-yl)-1H-pyrrolo[2,3-b]pyridin-3-yl)-5-(2,2-difluoroethoxy)benzoic acid], 0.1 to 1000 nM.
As for `Cc1noc(C)c1-c1cnc2c(c1)c(-c1ccc(C(=O)O)cc1OC1CCC1)cn2C1CCOCC1` [P-0341, 3-cyclobutoxy-4-(5-(3,5-dimethylisoxazol-4-yl)-1-(tetrahydro-2H-pyran-4-yl)-1H-pyrrolo[2,3-b]pyridin-3-yl)benzoic acid], the figure is 0.1 to 1000 nM.
Consider `Cc1noc(C)c1-c1cnc2c(c1)c(-c1ccc(C(=O)O)cc1OC(C)C)c(C)n2C(C1CC1)C1CC1` [P-0342, 4-(1-(dicyclopropylmethyl)-5-(3,5-dimethylisoxazol-4-yl)-2-methyl-1H-pyrrolo[2,3-b]pyridin-3-yl)-3-isopropoxybenzoic acid], for which the IC50 fell in the range of 0.1 to 1000 nM.
As for `Cc1noc(C)c1-c1cnc2c(c1)c(-c1ccc(C(=O)O)cc1OC(F)(F)F)c(C)n2C(C1CC1)C1CC1` [P-0343, 4-(1-(dicyclopropylmethyl)-5-(3,5-dimethylisoxazol-4-yl)-2-methyl-1H-pyrrolo[2,3-b]pyridin-3-yl)-3-(trifluoromethoxy)benzoic acid], the figure is 0.1 to 1000 nM.
Take `Cc1noc(C)c1-c1ccc2c(c1)c(-c1ccc(C(=O)O)cc1OC(F)(F)F)cn2C(C1CC1)C1CC1` [P-0344, 4-(1-(dicyclopropylmethyl)-5-(3,5-dimethylisoxazol-4-yl)-1H-indol-3-yl)-3-(trifluoromethoxy)benzoic acid]: the IC50 lay in the range of 0.1 to 1000 nM.
As for `Cc1noc(C)c1-c1cnc2c(c1)c(-c1ccc(C(=O)O)cc1OC(F)(F)F)c(C)n2-c1ncccc1C#N` [P-0345, 4-(1-(3-cyanopyridin-2-yl)-5-(3,5-dimethylisoxazol-4-yl)-2-methyl-1H-pyrrolo[2,3-b]pyridin-3-yl)-3-(trifluoromethoxy)benzoic acid], the figure is 0.1 to 1000 nM; as for `Cc1noc(C)c1-c1cnc2c(c1)c(-c1c(Cl)cc(C(=O)O)cc1OC(F)(F)F)cn2[C@H]1CCOC1` [P-0346, (S)-3-chloro-4-(5-(3,5-dimethylisoxazol-4-yl)-1-(tetrahydrofuran-3-yl)-1H-pyrrolo[2,3-b]pyridin-3-yl)-5-(trifluoromethoxy)benzoic acid], 0.1 to 1000 nM; as for `Cc1noc(C)c1-c1cnc2c(c1)c(-c1ccc(C(=O)O)cc1OC1CCC1)cn2-c1cnc(N2CCC2)nc1` [P-0347, 4-(1-(2-(azetidin-1-yl)pyrimidin-5-yl)-5-(3,5-dimethylisoxazol-4-yl)-1H-pyrrolo[2,3-b]pyridin-3-yl)-3-cyclobutoxybenzoic acid], 0.1 to 1000 nM.
Turning to `Cc1noc(C)c1-c1cnc2c(c1)c(-c1c(F)cc(C(=O)O)cc1OCC(F)F)cn2-c1cnc(N2CCC2)nc1` [P-0348, 4-(1-(2-(azetidin-1-yl)pyrimidin-5-yl)-5-(3,5-dimethylisoxazol-4-yl)-1H-pyrrolo[2,3-b]pyridin-3-yl)-3-(2,2-difluoroethoxy)-5-fluorobenzoic acid], the IC50 was 0.1 to 1000 nM.
With `Cc1nn(C(F)F)cc1-n1cc(-c2ccc(C(=O)O)cc2OCC(F)F)c2cc(-c3c(C)noc3C)cnc21` [P-0349, 3-(2,2-difluoroethoxy)-4-(1-(1-(difluoromethyl)-3-methyl-1H-pyrazol-4-yl)-5-(3,5-dimethylisoxazol-4-yl)-1H-pyrrolo[2,3-b]pyridin-3-yl)benzoic acid] the figure was 0.1 to 1000 nM; with `Cc1noc(C)c1-c1cnc2c(c1)c(-c1ccc(C(=O)O)cc1OC1CCC1)cn2[C@H]1CCOC1` [P-0350, (S)-3-cyclobutoxy-4-(5-(3,5-dimethylisoxazol-4-yl)-1-(tetrahydrofuran-3-yl)-1H-pyrrolo[2,3-b]pyridin-3-yl)benzoic acid], 0.1 to 1000 nM; with `Cc1nn(C(F)F)cc1-n1cc(-c2ccc(C(=O)O)cc2OC2CCC2)c2cc(-c3c(C)noc3C)cnc21` [P-0351, 3-cyclobutoxy-4-(1-(1-(difluoromethyl)-3-methyl-1H-pyrazol-4-yl)-5-(3,5-dimethylisoxazol-4-yl)-1H-pyrrolo[2,3-b]pyridin-3-yl)benzoic acid], 0.1 to 1000 nM.
For the molecule `Cc1noc(C)c1-c1cnc2c(c1)c(-c1c(Cl)cc(C(=O)O)cc1OCC(F)F)cn2-c1cnn(C(F)F)c1C` [P-0352, 3-chloro-5-(2,2-difluoroethoxy)-4-(1-(1-(difluoromethyl)-5-methyl-1H-pyrazol-4-yl)-5-(3,5-dimethylisoxazol-4-yl)-1H-pyrrolo[2,3-b]pyridin-3-yl)benzoic acid], the IC50 lay in the range of 0.1 to 1000 nM.
As for `Cc1noc(C)c1-c1cnc2c(c1)c(-c1ccc(C(=O)O)cc1OC1CCC1)cn2-c1cnn(C(F)F)c1C` [P-0353, 3-cyclobutoxy-4-(1-(1-(difluoromethyl)-5-methyl-1H-pyrazol-4-yl)-5-(3,5-dimethylisoxazol-4-yl)-1H-pyrrolo[2,3-b]pyridin-3-yl)benzoic acid], the figure is 0.1 to 1000 nM.
`Cc1noc(C)c1-c1cnc2c(c1)c(-c1ccc(C(=O)O)cc1OC(C)C)cn2-c1cnn(C(F)F)c1C` [P-0354, 4-(1-(1-(difluoromethyl)-5-methyl-1H-pyrazol-4-yl)-5-(3,5-dimethylisoxazol-4-yl)-1H-pyrrolo[2,3-b]pyridin-3-yl)-3-isopropoxybenzoic acid]: the IC50 lay within 0.1 to 1000 nM.
With `Cc1noc(C)c1-c1cnc2c(c1)c(-c1c(Cl)cc(C(=O)O)cc1OC(F)(F)F)cn2C1CCOCC1` [P-0355, 3-chloro-4-(5-(3,5-dimethylisoxazol-4-yl)-1-(tetrahydro-2H-pyran-4-yl)-1H-pyrrolo[2,3-b]pyridin-3-yl)-5-(trifluoromethoxy)benzoic acid], the IC50 lay within 0.1 to 1000 nM.
Consider `Cc1noc(C)c1-c1cnc2c(c1)c(-c1c(Cl)cc(C(=O)O)cc1OC1CCC1)cn2C(C1CC1)C1CC1` [P-0356, 3-chloro-5-cyclobutoxy-4-(1-(dicyclopropylmethyl)-5-(3,5-dimethylisoxazol-4-yl)-1H-pyrrolo[2,3-b]pyridin-3-yl)benzoic acid], for which the IC50 lay in the range of 0.1 to 1000 nM.
With `Cc1noc(C)c1-c1cnc2c(c1)c(-c1ccc(C(=O)O)cc1OC(C)C)cn2C1CCOCC1` [P-0357, 4-(5-(3,5-dimethylisoxazol-4-yl)-1-(tetrahydro-2H-pyran-4-yl)-1H-pyrrolo[2,3-b]pyridin-3-yl)-3-isopropoxybenzoic acid] the figure was 0.1 to 1000 nM.
